Measurements as given in ChEMBL document CHEMBL5346971, “Discovery of the First Irreversible HDAC6 Isoform Selective Inhibitor with Potent Anti-Multiple Myeloma Activity” (J Med Chem, 2023).

How the values were obtained:
[1] = species on record: Homo sapiens; assay: Selectivity index, ratio of IC50 for inhibition of C-terminal FLAG-tagged human full length recombinant HDAC2 (1 to 488 residues) expressed in Sf9 cells to IC50 for inhibition of N-terminal GST-tagged human full length recombinant HDAC6 (1 to 1215 residues) expressed in Sf9 cells
[2] = target: T1, Class 1 histone deacetylase (Homo sapiens) (UniProt Q13547+O15379+Q92769+Q9BY41); assay: Irreversible inhibition of class 1 HDAC in human A549 cells assessed as acetyl histone H4 level at 0.4 uM incubated for 5 hrs followed by drug wash-out and measured immediately after drug wash-out by western blot analysis relative to control; assay type: cell-based
[3] = target: T1, Class 1 histone deacetylase (Homo sapiens); assay: Irreversible inhibition of class 1 HDAC in human A549 cells assessed as acetyl histone H3 level at 0.4 uM incubated for 5 hrs followed by drug wash-out for 1 hr by western blot analysis relative to control; assay type: cell-based
[4] = target: T1, Class 1 histone deacetylase (Homo sapiens); assay: Irreversible inhibition of class 1 HDAC in human A549 cells assessed as acetyl histone H3 level at 0.4 uM incubated for 5 hrs followed by drug wash-out for 24 hrs by western blot analysis relative to control; assay type: cell-based
[5] = Effect on HDAC6 protein expression in human A549 cells assessed as change in HDAC6 protein expression at 0.4 uM incubated for 5 hrs followed by drug wash-out and measured following drug wash-out by western blot analysis relative to control; assay type: functional
[6] = target: T2, Histone deacetylase 7 (Homo sapiens, UniProt Q8WUI4); assay: Inhibition of N-terminal GST-tagged human HDAC7 (518 to end residues) expressed in baculovirus-infected Sf9 cells using Boc-Lys(trifluoroacety1)-AMC as substrate preincubated with enzyme for 1 hr followed by substrate addition and measured after 30 mins by fluorescence based analysis
T2 sequence (Q8WUI4 whole entry): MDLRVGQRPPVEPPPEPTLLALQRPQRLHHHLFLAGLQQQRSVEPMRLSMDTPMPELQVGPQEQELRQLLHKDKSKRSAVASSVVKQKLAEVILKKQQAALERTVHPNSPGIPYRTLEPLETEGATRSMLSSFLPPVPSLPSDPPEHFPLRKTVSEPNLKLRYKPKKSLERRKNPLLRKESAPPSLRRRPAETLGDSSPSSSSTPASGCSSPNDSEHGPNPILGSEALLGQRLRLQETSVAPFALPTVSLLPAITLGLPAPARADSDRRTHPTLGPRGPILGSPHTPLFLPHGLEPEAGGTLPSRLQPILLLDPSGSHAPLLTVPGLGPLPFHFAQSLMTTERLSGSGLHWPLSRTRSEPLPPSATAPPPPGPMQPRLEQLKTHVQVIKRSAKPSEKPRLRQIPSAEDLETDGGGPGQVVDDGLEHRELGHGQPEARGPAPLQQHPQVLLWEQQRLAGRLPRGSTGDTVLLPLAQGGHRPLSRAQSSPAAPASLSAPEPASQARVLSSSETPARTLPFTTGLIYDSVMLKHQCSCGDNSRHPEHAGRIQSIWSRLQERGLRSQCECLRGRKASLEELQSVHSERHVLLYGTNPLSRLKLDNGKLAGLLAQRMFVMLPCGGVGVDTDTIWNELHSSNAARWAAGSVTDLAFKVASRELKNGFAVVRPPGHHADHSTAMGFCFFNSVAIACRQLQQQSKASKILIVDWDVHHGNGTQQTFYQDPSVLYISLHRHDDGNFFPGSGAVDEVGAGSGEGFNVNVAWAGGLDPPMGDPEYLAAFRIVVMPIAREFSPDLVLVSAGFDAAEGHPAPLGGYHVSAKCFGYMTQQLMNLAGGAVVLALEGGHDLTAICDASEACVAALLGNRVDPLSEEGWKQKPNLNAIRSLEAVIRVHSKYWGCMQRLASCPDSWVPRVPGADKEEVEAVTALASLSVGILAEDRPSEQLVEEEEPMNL

[7] = target: T3, Polyamine deacetylase HDAC10 (Homo sapiens, UniProt Q969S8); assay: Inhibition of N-terminal FLAG-tagged human recombinant HDAC10 (2 to 631 residues) expressed in baculovirus-infected Sf9 cells using Acetyl-Arg-His-Lys(acety1)-Lys-(acety1)-AMC as substrate peincubated with enzyme for 1 hr followed by substrate addition and measured after 30 mins by fluorescence based analysis
T3 sequence (Q969S8 whole entry): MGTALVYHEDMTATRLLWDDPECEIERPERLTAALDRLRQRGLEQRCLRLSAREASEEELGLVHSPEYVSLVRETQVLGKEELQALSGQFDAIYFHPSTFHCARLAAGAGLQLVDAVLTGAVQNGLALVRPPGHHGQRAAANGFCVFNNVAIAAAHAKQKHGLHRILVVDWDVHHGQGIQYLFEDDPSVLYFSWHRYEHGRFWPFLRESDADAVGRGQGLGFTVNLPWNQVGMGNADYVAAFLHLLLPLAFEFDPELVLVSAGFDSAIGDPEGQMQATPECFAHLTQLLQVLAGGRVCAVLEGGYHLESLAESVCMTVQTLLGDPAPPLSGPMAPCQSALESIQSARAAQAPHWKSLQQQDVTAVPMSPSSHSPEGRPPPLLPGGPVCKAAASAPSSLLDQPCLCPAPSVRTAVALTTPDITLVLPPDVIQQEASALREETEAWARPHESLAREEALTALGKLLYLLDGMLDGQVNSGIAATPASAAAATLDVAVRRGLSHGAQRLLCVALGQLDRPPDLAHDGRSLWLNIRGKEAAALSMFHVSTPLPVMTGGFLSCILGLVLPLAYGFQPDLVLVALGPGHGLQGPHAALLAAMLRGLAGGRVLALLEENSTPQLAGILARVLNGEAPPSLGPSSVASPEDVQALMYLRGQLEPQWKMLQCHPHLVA

[8] = Half-life in mouse liver microsomes in presence of NADPH by LC-MS/MS analysis; assay type: ADME, Microsome
[9] = Half-life in human liver microsomes in presence of NADPH by LC-MS/MS analysis; assay type: ADME, Microsome
[10] = Intrinsic clearance in rat liver microsomes in presence of NADPH by LC-MS/MS analysis; assay type: ADME, Microsome; details: read-out: CLH
[11] = Intrinsic clearance in mouse liver microsomes in presence of NADPH by LC-MS/MS analysis; assay type: ADME, Microsome; details: read-out: CLH

T1 sequence (O15379 whole entry, looked up): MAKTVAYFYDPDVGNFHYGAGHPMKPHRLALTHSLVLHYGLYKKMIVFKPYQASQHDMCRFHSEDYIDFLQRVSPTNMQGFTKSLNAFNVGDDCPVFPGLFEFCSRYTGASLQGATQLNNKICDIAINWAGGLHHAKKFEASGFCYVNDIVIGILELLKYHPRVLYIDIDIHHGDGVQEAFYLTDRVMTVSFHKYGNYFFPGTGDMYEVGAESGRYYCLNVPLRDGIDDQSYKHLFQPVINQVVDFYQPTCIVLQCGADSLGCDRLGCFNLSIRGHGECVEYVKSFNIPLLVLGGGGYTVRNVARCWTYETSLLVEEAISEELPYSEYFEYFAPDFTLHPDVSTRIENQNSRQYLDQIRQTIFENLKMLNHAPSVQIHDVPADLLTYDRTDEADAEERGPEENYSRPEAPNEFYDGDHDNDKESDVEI
T1 sequence (Q13547 whole entry, looked up): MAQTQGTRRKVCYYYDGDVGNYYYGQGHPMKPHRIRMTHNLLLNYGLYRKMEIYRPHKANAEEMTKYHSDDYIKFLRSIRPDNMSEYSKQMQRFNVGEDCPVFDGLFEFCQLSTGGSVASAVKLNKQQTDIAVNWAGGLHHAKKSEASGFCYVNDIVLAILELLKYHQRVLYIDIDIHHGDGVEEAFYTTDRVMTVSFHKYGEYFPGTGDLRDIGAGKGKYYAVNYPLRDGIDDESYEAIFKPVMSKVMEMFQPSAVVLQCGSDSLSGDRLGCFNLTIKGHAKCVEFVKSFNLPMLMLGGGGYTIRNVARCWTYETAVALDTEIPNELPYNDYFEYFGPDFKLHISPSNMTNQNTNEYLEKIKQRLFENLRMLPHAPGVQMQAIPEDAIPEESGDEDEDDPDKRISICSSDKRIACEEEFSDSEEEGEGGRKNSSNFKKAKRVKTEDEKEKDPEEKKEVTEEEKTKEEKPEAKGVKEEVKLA
T1 sequence (Q92769 whole entry, looked up): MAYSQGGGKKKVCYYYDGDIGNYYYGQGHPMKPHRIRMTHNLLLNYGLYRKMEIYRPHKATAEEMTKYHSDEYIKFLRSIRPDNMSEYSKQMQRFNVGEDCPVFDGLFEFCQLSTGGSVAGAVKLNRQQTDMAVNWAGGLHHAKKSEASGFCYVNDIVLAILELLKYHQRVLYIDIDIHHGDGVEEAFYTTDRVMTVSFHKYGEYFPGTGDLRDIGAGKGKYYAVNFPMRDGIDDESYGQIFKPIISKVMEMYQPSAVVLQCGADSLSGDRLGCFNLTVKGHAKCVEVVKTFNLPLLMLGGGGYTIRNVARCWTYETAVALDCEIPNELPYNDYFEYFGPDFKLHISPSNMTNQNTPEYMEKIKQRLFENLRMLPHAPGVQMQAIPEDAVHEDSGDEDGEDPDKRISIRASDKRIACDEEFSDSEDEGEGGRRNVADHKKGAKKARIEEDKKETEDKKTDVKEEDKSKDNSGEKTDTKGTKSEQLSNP
T1 sequence (Q9BY41 whole entry, looked up): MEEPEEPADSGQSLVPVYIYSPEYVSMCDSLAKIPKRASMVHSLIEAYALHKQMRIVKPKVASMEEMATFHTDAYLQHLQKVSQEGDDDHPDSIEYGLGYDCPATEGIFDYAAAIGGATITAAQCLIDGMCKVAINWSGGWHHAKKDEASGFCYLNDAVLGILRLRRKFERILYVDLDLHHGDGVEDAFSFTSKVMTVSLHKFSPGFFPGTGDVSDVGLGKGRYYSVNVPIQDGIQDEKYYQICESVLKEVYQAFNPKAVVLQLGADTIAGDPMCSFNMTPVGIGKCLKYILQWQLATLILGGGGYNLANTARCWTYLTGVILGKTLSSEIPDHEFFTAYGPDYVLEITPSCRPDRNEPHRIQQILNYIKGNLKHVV

O=C(NO)c1ccc(COc2no[n+]([O-])c2S(=O)(=O)c2ccccc2)cc1
Ratio IC50 [1]: 45.5 | fold change (FC) [2]: 0.7 | fold change (FC) [3]: 1.2 | fold change (FC) [4]: 1.2 | fold change (FC) [5]: 1 | IC50 [6]: > 40000 nM | IC50 [7]: 1800 nM | half-life [8]: 1.8 min | half-life [9]: 5.4 min | CLint scaled [10]: 270 mL/min/kg | CLint scaled [11]: 2990 mL/min/kg
